Data: patent publication US5698544A, “Cephem compound, process for producing the compound, and antimicrobial composition containing the same” (Otsuka Kagaku Kabushiki Kaisha, priority 1994, dated 1997)
≈ marks a conversion by molar mass, not a printed value.

Experiments:
[1] = tested on: S. aureus FDA 209-P; test: Agar plate dilution assay (MIC), S. aureus FDA 209-P; assay type: cell-based; details: Staphylococcus aureus, FDA209, inoculum size 10^6 cells/ml
[2] = tested on: E. faecalis ATCC-21212; test: Agar plate dilution assay (MIC), E. faecalis ATCC-21212; assay type: cell-based; details: Enterococcus faecalis, ATCC21212, inoculum size 10^6 cells/ml
[3] = tested on: MRSA 92-1044; test: Agar plate dilution assay (MIC), MRSA 92-1044; assay type: cell-based, methicillin-resistant Staphylococcus aureus; details: Staphylococcus aureus, inoculum size 10^6 cells/ml
[4] = tested on: E. coli NIHJ JC-2; test: Agar plate dilution assay (MIC), E. coli NIHJ JC-2; assay type: cell-based; details: Escherichia coli, NIHJJC2, inoculum size 10^6 cells/ml
[5] = tested on: S. marcescens IFO-12648; test: Agar plate dilution assay (MIC), S. marcescens IFO-12648; assay type: cell-based; details: Serratia marcescens, IFO12648, inoculum size 10^6 cells/ml

## C[N+](C)(C)CC[n+]1ccc(SC=CC2=C(C(=O)O)N3C(=O)C(NC(=O)C(=NOC4CCCC4)c4csc(N)n4)C3SC2)cc1 (centres unmarked) [(a)]
[1]
  MIC: 0.39 µg/mL
[2]
  MIC: 0.39 µg/mL
[3]
  MIC: 6.25 µg/mL
[4]
  MIC: 0.39 µg/mL
[5]
  MIC: 3.13 µg/mL

## C[N+](C)(C)CC[n+]1ccc(SC=CC2=C(C(=O)O)N3C(=O)C(NC(=O)C(=NO)c4csc(N)n4)C3SC2)cc1 (centres unmarked) [(b)]
[1]
  MIC: 0.1 µg/mL
[2]
  MIC: 0.1 µg/mL
[3]
  MIC: 1.56 µg/mL
[4]
  MIC: 0.05 µg/mL
[5]
  MIC: 0.1 µg/mL

## C[N+](C)(CC[n+]1ccc(SC=CC2=C(C(=O)O)N3C(=O)C(NC(=O)C(=NO)c4csc(N)n4)C3SC2)cc1)CC(N)=O (centres unmarked) [(c)]
[1]
  MIC: 0.1 µg/mL
[2]
  MIC: 0.1 µg/mL
[3]
  MIC: 1.56 µg/mL
[4]
  MIC: 0.025 µg/mL
[5]
  MIC: 0.1 µg/mL

## CC(=O)C[N+](C)(C)CC[n+]1ccc(SC=CC2=C(C(=O)O)N3C(=O)C(NC(=O)C(=NO)c4csc(N)n4)C3SC2)cc1 (centres unmarked) [(d)]
[1]
  MIC: 0.2 µg/mL
[2]
  MIC: 0.2 µg/mL
[3]
  MIC: 1.56 µg/mL
[4]
  MIC: 0.025 µg/mL
[5]
  MIC: 0.2 µg/mL

## C[N+](C)(CCO)CC[n+]1ccc(SC=CC2=C(C(=O)O)N3C(=O)C(NC(=O)C(=NO)c4csc(N)n4)C3SC2)cc1 (centres unmarked) [(e)]
[1]
  MIC: 0.1 µg/mL
[2]
  MIC: 0.1 µg/mL
[3]
  MIC: 1.56 µg/mL
[4]
  MIC: 0.05 µg/mL
[5]
  MIC: 0.1 µg/mL

## C[N+]1(CC[n+]2ccc(SC=CC3=C(C(=O)O)N4C(=O)C(NC(=O)C(=NO)c5csc(N)n5)C4SC3)cc2)CCOCC1 (centres unmarked) [(f)]
[1]
  MIC: 0.1 µg/mL
[2]
  MIC: 0.2 µg/mL
[3]
  MIC: 1.56 µg/mL
[4]
  MIC: 0.025 µg/mL
[5]
  MIC: 0.1 µg/mL

## CO[C@@]1(NC(=O)CSC(F)F)C(=O)N2C(C(=O)O)=C(CSc3nnnn3CCO)CO[C@@H]21 [FMOX, flomoxef, reference compound]
[1]
  MIC: 0.2 µg/mL (≈ 0.403 µM)
[2]
  MIC: 100 µg/mL (≈ 201 µM)
[3]
  MIC: > 100 µg/mL
[4]
  MIC: 0.05 µg/mL (≈ 0.101 µM)
[5]
  MIC: 0.2 µg/mL (≈ 0.403 µM)
